This note sets out measurements from ChEMBL document CHEMBL1201862, “PubChem BioAssay data set” (2004).

One assay deals with T1, Exodeoxyribonuclease V (Escherichia coli (strain K12), UniProt P04993+P07648+P08394).
T1 sequence (P04993 whole entry): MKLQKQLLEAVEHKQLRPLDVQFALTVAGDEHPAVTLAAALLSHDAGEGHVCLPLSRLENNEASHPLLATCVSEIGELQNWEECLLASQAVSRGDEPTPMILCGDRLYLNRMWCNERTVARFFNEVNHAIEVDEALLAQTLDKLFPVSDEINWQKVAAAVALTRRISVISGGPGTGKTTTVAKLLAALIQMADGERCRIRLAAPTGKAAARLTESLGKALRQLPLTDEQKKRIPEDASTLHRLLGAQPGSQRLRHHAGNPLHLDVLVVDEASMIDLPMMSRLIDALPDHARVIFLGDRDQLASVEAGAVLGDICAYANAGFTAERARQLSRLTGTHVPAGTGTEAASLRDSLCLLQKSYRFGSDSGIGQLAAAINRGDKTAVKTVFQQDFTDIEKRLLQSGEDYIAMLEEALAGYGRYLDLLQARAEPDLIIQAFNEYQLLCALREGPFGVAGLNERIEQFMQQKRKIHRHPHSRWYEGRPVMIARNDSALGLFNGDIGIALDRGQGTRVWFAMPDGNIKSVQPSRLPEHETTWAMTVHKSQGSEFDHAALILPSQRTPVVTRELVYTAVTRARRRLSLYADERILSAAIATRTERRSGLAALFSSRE
T1 sequence (P07648 whole entry): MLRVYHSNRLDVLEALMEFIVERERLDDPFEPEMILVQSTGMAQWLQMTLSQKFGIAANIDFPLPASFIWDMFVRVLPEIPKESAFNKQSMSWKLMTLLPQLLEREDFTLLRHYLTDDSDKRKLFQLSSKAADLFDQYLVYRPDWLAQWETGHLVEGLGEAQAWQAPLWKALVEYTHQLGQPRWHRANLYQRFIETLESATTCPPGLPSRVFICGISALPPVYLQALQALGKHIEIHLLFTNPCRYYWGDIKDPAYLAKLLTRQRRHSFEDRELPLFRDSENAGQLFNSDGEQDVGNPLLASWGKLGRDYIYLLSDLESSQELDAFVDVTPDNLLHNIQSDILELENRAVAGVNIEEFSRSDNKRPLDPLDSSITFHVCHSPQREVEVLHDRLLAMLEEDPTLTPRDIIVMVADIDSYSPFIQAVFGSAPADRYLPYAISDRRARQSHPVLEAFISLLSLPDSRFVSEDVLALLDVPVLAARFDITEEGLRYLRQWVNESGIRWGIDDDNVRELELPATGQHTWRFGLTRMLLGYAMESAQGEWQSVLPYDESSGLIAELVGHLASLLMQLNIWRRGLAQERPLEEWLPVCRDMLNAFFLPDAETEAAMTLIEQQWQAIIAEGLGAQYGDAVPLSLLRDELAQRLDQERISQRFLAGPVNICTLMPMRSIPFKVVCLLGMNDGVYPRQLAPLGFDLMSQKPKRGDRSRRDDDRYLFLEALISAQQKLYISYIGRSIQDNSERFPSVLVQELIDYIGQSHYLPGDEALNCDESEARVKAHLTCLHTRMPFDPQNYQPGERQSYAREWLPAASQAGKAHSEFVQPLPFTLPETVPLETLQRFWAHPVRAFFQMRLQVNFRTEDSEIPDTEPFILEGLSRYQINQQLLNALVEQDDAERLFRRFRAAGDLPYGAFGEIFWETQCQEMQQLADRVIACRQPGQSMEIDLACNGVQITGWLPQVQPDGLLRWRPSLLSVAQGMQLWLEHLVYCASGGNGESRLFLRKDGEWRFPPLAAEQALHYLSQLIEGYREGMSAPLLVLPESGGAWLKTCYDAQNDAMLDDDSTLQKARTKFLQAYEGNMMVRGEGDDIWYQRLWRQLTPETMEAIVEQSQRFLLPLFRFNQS
T1 sequence (P08394 whole entry): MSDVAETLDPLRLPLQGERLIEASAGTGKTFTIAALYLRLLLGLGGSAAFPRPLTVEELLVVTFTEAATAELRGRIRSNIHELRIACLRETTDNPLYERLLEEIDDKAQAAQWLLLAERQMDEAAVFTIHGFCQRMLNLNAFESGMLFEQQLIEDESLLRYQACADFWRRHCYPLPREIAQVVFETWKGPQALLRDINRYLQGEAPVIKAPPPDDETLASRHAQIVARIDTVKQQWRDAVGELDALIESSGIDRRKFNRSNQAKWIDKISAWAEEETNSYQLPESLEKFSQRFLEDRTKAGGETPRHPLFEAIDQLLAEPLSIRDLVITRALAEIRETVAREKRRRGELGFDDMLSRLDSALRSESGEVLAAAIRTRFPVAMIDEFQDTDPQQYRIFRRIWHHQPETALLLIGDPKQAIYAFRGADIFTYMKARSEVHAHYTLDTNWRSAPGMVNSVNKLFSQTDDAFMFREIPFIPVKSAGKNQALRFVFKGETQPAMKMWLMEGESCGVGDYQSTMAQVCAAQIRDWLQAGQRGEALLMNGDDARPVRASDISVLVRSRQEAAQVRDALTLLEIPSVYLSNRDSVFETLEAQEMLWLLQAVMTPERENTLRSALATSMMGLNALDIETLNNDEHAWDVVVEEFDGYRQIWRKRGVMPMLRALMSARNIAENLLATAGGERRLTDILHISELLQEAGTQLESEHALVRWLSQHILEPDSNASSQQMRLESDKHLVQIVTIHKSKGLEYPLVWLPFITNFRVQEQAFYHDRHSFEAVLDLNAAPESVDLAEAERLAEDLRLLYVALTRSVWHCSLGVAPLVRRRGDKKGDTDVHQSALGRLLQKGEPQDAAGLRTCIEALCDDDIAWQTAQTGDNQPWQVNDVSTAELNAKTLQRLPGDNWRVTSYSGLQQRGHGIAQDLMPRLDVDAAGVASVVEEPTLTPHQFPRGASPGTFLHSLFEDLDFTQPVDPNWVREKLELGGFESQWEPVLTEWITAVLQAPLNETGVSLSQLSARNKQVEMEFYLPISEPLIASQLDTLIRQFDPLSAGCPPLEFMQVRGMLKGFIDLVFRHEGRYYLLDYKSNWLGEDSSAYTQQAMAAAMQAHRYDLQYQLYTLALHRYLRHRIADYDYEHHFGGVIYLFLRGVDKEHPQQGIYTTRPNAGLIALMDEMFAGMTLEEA
The assay is described as follows: RecBCD inhibition via phage-restricted bacterial growth – absorbance, V66 E. coli, mutant T4 phage, counter-screen for AddAB inhibitor project, dose response (AID 492957). Type of assay: functional, cell-based, Escherichia coli str. K-12 substr. MG1655.

Assay [1] addresses cAMP-dependent protein kinase catalytic subunit PRKX (Homo sapiens, UniProt P51817). Type of assay: functional.
In assay [2] the target is Tyrosine-protein kinase SYK (Homo sapiens, UniProt P43405). Type of assay: functional.
Assay [3] concerns the target Receptor tyrosine-protein kinase erbB-4 (Homo sapiens, UniProt Q15303). Type of assay: functional.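 Note: ERBB4 member of a kinome-wide kinase profiling panel.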
Assay [4] addresses Non-receptor tyrosine-protein kinase TYK2 (Homo sapiens, UniProt P29597). Type of assay: functional.

The source made the active and inactive calls.

Chain of Non-receptor tyrosine-protein kinase TYK2 (P29597 whole entry): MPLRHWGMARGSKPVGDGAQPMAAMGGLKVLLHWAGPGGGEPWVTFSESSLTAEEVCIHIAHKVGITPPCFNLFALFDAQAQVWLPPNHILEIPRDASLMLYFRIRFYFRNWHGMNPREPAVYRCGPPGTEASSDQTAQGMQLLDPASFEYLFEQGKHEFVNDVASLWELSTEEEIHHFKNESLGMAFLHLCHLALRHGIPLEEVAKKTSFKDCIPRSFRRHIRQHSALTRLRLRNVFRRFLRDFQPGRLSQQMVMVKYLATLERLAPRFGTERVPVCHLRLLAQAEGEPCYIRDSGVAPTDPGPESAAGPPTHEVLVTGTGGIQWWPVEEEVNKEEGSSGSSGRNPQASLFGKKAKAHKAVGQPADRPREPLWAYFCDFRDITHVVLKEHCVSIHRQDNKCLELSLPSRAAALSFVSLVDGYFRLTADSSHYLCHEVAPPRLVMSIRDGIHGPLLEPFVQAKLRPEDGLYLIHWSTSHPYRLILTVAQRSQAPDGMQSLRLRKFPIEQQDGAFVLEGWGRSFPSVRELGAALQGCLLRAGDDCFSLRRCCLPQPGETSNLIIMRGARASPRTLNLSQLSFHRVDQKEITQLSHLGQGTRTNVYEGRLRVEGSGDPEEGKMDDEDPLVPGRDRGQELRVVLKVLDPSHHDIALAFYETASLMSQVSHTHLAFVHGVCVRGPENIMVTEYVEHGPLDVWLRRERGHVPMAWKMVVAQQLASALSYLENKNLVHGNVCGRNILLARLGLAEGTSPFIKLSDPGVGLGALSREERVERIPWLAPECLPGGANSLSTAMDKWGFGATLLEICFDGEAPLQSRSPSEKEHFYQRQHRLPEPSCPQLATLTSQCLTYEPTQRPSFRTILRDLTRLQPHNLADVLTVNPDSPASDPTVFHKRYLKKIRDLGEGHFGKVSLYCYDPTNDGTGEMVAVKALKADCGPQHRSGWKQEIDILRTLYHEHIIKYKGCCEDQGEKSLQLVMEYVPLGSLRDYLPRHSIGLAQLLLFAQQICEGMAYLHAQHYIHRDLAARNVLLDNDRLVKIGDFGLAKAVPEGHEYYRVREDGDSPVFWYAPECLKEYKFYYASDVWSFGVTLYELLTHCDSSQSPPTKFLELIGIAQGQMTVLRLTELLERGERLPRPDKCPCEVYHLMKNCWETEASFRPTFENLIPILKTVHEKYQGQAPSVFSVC
Chain of Receptor tyrosine-protein kinase erbB-4 (Q15303 whole entry): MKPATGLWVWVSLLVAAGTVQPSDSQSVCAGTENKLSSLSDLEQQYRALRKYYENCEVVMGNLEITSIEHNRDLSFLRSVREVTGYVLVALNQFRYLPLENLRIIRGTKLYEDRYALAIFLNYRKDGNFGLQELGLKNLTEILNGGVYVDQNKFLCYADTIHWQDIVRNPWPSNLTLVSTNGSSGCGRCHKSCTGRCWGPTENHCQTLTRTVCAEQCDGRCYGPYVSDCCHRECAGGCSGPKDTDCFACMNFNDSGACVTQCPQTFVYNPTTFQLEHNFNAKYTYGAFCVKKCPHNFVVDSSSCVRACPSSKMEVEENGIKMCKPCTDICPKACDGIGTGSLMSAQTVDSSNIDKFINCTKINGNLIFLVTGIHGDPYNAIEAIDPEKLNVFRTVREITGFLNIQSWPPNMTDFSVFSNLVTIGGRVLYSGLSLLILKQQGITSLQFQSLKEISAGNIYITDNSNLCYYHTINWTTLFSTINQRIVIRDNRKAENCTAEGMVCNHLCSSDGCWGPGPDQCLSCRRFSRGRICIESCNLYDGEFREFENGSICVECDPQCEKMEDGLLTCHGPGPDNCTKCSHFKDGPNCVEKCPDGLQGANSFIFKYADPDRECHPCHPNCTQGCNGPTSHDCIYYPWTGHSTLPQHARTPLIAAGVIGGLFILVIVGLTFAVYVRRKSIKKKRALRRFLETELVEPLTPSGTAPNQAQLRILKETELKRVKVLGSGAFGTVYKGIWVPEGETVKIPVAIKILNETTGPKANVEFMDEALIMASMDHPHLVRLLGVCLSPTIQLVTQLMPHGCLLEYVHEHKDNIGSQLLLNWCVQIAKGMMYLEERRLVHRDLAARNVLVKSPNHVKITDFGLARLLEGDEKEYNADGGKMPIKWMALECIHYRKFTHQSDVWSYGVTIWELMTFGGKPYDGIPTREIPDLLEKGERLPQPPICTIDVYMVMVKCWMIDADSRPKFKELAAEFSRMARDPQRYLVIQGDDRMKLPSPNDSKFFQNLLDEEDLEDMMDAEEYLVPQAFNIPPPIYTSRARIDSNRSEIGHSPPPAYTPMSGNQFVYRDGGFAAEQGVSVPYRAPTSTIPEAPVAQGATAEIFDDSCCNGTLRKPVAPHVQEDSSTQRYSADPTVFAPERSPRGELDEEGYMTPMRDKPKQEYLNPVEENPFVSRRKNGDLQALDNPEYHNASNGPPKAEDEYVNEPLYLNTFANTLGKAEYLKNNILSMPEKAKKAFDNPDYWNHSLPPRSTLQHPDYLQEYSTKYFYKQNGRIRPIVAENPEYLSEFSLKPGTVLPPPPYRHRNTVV
Chain of cAMP-dependent protein kinase catalytic subunit PRKX (P51817 whole entry): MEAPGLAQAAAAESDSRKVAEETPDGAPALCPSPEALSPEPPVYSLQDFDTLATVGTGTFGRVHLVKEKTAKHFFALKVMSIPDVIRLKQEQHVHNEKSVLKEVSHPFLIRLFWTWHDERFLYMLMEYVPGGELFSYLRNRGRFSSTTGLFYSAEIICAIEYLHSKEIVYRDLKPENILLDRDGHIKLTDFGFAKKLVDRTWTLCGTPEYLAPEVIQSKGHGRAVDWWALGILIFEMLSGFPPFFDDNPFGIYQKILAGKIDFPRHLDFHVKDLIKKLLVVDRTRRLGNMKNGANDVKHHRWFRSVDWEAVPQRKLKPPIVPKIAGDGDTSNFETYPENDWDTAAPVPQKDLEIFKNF

With `COc1ccc(-c2nnc(NC(=O)c3ccc(F)cc3)o2)cc1`, the IC50 at Exodeoxyribonuclease V is > 118000 nM (inactive).

As to `CCn1c(-c2nonc2N)nc2cnc(Oc3cccc(NC(=O)c4ccc(OCCN5CCOCC5)cc4)c3)cc21` [GSK-269962A], the Ki in assay [1] is 50.1 nM (active); in assay [2] it was > 1580 nM (inactive); in assay [3], > 3980 nM (inactive); in assay [4], > 2000 nM (inactive).

What is called IC50 is the midpoint of a concentration-inhibition curve. For orientation: Ki means a measure of affinity in units of concentration, obtained from inhibition or displacement.
